The test system of series [1] is Human umbilical vascular endothelial cells (HUVECs). Nature of the series: HUVEC tube-formation assay on Matrigel-coated plates. In kind it is cell-based. As for the experimental part:
Human umbilical vascular endothelial cells (HUVECs) we used for tube-formation assays on Matrigel-coated plates as shown in FIG. 10. The expression level of secreted gal-1 in 6 different cancer cell lines was determined using ELISA assay.

For series [2], the system named is XPA3. Kind of series: Cell killing by soluble LLS2, pancreatic cancer cell line XPA3. It is filed as cell-based. As for the experimental part: (§1) Biotinylated LLS2 was synthesized in solution and loaded it onto a streptavidin-coated plate. The biotinylated LLS2 immobilized on the plate killed approximately 21% of SKOV3 ovarian cancer cells at 100 μM loading, 16% at 50 μM and 14% at 25 μM (FIG. 4). The killing effect of the LLS2 compound was also tested in solution. […] In addition, LLS2 can kill pancreatic cancer cell line XPA3, prostate cancer cell line PC3, colon cancer cell line HT29, breast cancer cell line MCF7 and lung cancer cell line A549 (FIG. 4).

Series [3] has as its system SKOV3 cells. Nature of the series: In vitro combination of LLS2 with paclitaxel on SKOV3 cells. In kind it is cell-based.
Text: C.I.<0.9 indicates synergism, C.I.=0.9-1.10 indicates additive interaction, and C.I.>1.1 indicates antagonism.
The synergistic effects of LLS2 with current chemotherapeutic drugs including docetaxel, paclitaxel, 5-Fu, oxaliplatin, carboplatin, doxorubicin and gemcitabine were examined in vitro.
In series [4] the test system is GFP-H-Ras(12V). Nature of the series: H-Ras localization (real time confocal) and membrane-associated H-Ras immunoblot. It is filed as cell-based. An excerpt:
(§2) (b) Once activated by EGF, H-Ras will be partially trafficked to the plasma membrane leading to the activation of Erk pathway. […] (c) Quantification of membrane associated H-Ras (active form) by immunoblot analysis after treatment with buffer (−) or LLS2 (+), showing that LLS2 was able to lower the level of membrane-associated H-Ras. (d) LLS2 also miscolocalized the EGF-stimulated K-Ras(G12V) but not N-Ras(Q61D).
(§3) LLS2 treatment also miscolocalizes the EGF-stimulated K-Ras(G12V), whereas the localization of EGF-stimulated N-Ras(Q61D) is not changed (FIG. 9d). […] Without being bound to any particular theory, this implies that LLS2 induces cell death through suppression of the RAS-ERK pathway.
On the technique in general: A western blot detects proteins with antibodies after separation by electrophoresis.

Series [5] has as its system SKOV3. Kind of series: Anti-cancer activity against ovarian cancer cells SKOV3 (cell killing in solution / in vitro cell proliferation). In kind it is cell-based. As for the experimental part:
as §1

The subject of series [6] is A549. Kind of series: Cell killing by soluble LLS2, lung cancer cell line A549. It is filed as cell-based. The method, then: as §1
Series [7] concerns PC3. Nature of the series: In vitro cell proliferation / killing assay on PC3 prostate cancer cells. It is filed as cell-based. As to conditions: prostate cancer cell line PC3. As for the experimental part: as §1
Series [8] relates to MCF7. Kind of series: Cell killing by soluble LLS2, breast cancer cell line MCF7. In kind it is cell-based. As for the experimental part:
as §1

Series [9] has as its system SKOV3 xenograft tumors. Nature of the series: SKOV3 xenograft in nude mice, LLS2 alone or with paclitaxel. It is filed as in vivo.
Text: Briefly, 2.5×10^6 SKOV3 cells were subcutaneously injected to the right side of the dorsal flank of the female congenital athymic BALB/c nude mice. The tumors were allowed to grow to about 100 mm^3.
Then, mice were randomly divided into control and treatment groups (n=5). Mice were given a daily I.V. administration for 5 successive days.
SKOV3 ovarian cancer cells were subcutaneously injected on the dorsal flanks of mice.
The subject of series [10] is N-Ras(Q61D). Kind of series: N-Ras(Q61D) localization. In kind it is cell-based.
Text: as §2, §3

For series [11], the target named is T1, galectin-1 (Homo sapiens, UniProt P09382).
T1 construct: endogenous in cells
Kind of series: Pull-down with biotinylated LLS2, LC MS/MS and anti-galectin-1 immunoblot. Particulars: biotinylated LLS2, cell membrane protein preparation. It is filed as binding. As for the experimental part: LLS2 was biotinylated, incubated with a cell membrane protein preparation, and bound proteins were pulled down with immobilized streptavidin resin. The bound proteins were eluted and subjected to identification by LC MS/MS. The MS result identified galectin-1 as the putative target protein of LLS2 (FIG. 8a). The identity of galectin-1 as the target protein of LLS2 was confirmed by immunoblot analysis of proteins eluted from (i) blank streptavidin-beads, (ii) biotin-LLS2/streptavidin beads, and (iii) biotinylated unrelated small molecule/streptavidin beads, using anti-galectin-1 antibody as the western blot probe (FIG. 8b).

Series [12] concerns prostate cancer PC3 cancer cells.
For series [13], the system named is K-Ras(G12V). Nature of the series: K-Ras(G12V) localization and Ras activity assay. It is filed as cell-based.
Text: as §2, §3

Series [14] deals with phospho-MEK and phospho-ERK. Kind of series: Expression level of phospho-MEK and phospho-ERK after LLS2. It is filed as cell-based. As to conditions: treatment for 2 hours.
Text: as §2, §3

The subject of series [15] is HT29. Nature of the series: Cell killing by soluble LLS2, colon cancer cell line HT29. It is filed as cell-based. As for the experimental part:
as §1

Setting [16] is: Homo sapiens, SK-OV-3, ovarian cancer cells SKOV3.

T1 sequence (P09382 whole entry): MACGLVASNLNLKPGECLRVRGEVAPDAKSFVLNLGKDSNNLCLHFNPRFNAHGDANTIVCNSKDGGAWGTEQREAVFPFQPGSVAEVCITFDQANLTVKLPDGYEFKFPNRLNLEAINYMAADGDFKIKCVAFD

One may read the IC50 as the concentration that gives 50% inhibition. A higher IC50 goes with weaker potency. Turning to `CC(=O)OCCN(CCOC(C)=O)c1ccc(-c2nc3cc(C(CC(N)=O)NC(=O)[C@@H](N)Cc4ccc(Cl)c(Cl)c4)ccc3n2Cc2ccc(F)c(F)c2)cc1` (stereo partly drawn) [LLS2, ((4-(5-(3-amino-1-((S)-2-amino-3-(3,4-dichlorophenyl)propanamido)-3-oxopropyl)-1-(3,4-difluorobenzyl)-1H-benzo[d]imidazol-2-yl)phenyl)azanediyl)bis(ethane-2,1-diyl) Diacetate], the “angiogenic effect of added gal-1” value in series [1] is given as “inhibited”. In addition, the “tube-formation activity of PC3 conditioned medium” value in series [1] (10 μM) is “neutralized”. Also, the cell killing result in [2], in series [6], in series [7], in [8] and in series [15] was “can kill” throughout. Moreover, the “anti-proliferation effect of combined treatment with paclitaxel” value in series [3] (SKOV3, LLS2 + paclitaxel) is listed as “much stronger anti-proliferation effects”; in series [12] (PC3, LLS2 + paclitaxel) it was “much stronger anti-proliferation effects”. In addition, the “apoptosis after combined LLS2/paclitaxel treatment” value in [3] (SKOV3 cells, 24 hours) is reported as “Increased apoptosis”. The “membrane-localized H-Ras” value in [4] (25 μM, 15 mins treatment, EGF-activated) is “loss of membrane-localized H-Ras”. Besides, in series [4] (25 μM, 30 min), the “localization of EGF-stimulated GFP-H-Ras(12V)” value is “mis-localizes to intracellular compartments”. In series [4] (LLS2-treated vs non-treated MDCK cells), the “membrane-associated H-Ras” value is given as “significant down-expression of H-Ras”. Also, the IC50 in series [5] (setting [16]) is 15.7 µM; in [5] (ovarian cancer cells SKOV3), 18.7 µM. Moreover, the “tolerability (body weight)” value in series [9] (LLS2/paclitaxel combination regimen, nude mice) was “tolerable and without significant side effects”. Besides, the “tumor size and weight” value in series [9] (LLS2 alone, daily I.V. for 5 successive days, SKOV3 xenograft) is on record as “smaller tumor size”. The tumor growth entry in series [9] (combination LLS2/paclitaxel compared to either alone, SKOV3 xenograft) is listed as “significant suppression of tumor growth”. The “localization of EGF-stimulated N-Ras(Q61D)” value in series [10] is “not changed”. In [11], the “target protein identified by pull-down / immunoblot” value is given as “target protein of LLS2 was indeed galectin-1”. Also, the “localization of EGF-stimulated K-Ras(G12V)” value in series [13] is “miscolocalizes”. Moreover, in series [13] (Ras activity assays), the “EGF-stimulated levels of K-Ras-GTP” value is recorded as “decreases”. Also, in series [14], the “expression level of phospho-MEK and phospho-ERK” value is “down-regulated”.
`CC(=O)OCCN(CCOC(C)=O)c1ccc(-c2nc3cc(C(CC(N)=O)NC(=O)[C@@H](N)[C@H](C)O)ccc3n2Cc2ccc(F)c(F)c2)cc1` (stereo partly drawn) [LLS3, ((4-(5-(3-amino-1-((2S,3S)-2-amino-3-hydroxybutanamido)-3-oxopropyl)-1-(3,4-difluorobenzyl)-1H-benzo[d]imidazol-2-yl)phenyl)azanediyl)bis(ethane-2,1-diyl) Diacetate]: in [5] (setting [16]), half-maximal inhibition (IC50) was put at 37.6 µM.
Still for that read-out and setting: to `COc1ccc(C[C@@H](N)C(=O)NC(CC(N)=O)c2ccc3c(c2)nc(-c2cccc(Cn4ccnc4)c2)n3CCc2ccccn2)cc1` (stereo partly drawn) [LLS1, (2R)—N-(1-(2-(3-((1H-imidazol-1-yl)methyl)phenyl)-1-(2-(pyridin-2-yl)ethyl)-1H-benzo[d]imidazol-5-yl)-3-amino-3-oxopropyl)-2-amino-3-(4-methoxyphenyl)propanamide] belongs 29.5 µM.
Still for that read-out and setting: to `NC(=O)CC(NCc1ccc(Cl)c(Cl)c1)c1ccc2c(c1)nc(-c1ccc(-c3cccc(CO)n3)cc1)n2CC12CC3CC(CC(C3)C1)C2` (stereo not shown) [LLS7, 3-(1-(((1s,3s)-adamantan-1-yl)methyl)-2-(4-(6-(hydroxymethyl)pyridin-2-yl)phenyl)-1H-benzo[d]imidazol-5-yl)-3-((3,4-dichlorobenzyl)amino)propanamide] belongs above 50 µM.
On to `CC(=O)O[C@H]1C(=O)[C@@]2(C)[C@H]([C@H](OC(=O)c3ccccc3)[C@]3(O)C[C@H](OC(=O)[C@H](O)[C@@H](NC(=O)c4ccccc4)c4ccccc4)C(C)=C1C3(C)C)[C@]1(OC(C)=O)CO[C@@H]1C[C@@H]2O` [Paclitaxel, reference compound], for which the “cytotoxicity, single agent” value is “little effect” in series [3] (SKOV3 cells, at particular concentrations) and “moderate cytotoxicity” in series [12].
Turning to `CC(=O)OCCN(CCOC(C)=O)c1ccc(-c2nc3cc(C(CC(N)=O)N(Cc4ccc(Cl)c(Cl)c4)Cc4ccc(Cl)c(Cl)c4)ccc3n2CC23CC4CC(CC(C4)C2)C3)cc1` (stereo not shown) [LLS25, ((4-(1-(((1s,3s)-adamantan-1-yl)methyl)-5-(3-amino-1-(bis(3,4-dichlorobenzyl)amino)-3-oxopropyl)-1H-benzo[d]imidazol-2-yl)phenyl)azanediyl)bis(ethane-2,1-diyl) Diacetate], the IC50 in series [5] (setting [16]) was 20.7 µM.
In [5] (setting [16]), `CC(=O)OCCN(CCOC(C)=O)c1ccc(-c2nc3cc(C(CC(N)=O)NC(=O)Nc4ccc(C(F)(F)F)c(Cl)c4)ccc3n2Cc2ccc(F)c(F)c2)cc1` (stereo not shown) [LLS15, ((4-(5-(3-amino-1-(3-(3-chloro-4-(trifluoromethyl)phenyl)ureido)-3-oxopropyl)-1-(3,4-difluorobenzyl)-1H-benzo[d]imidazol-2-yl)phenyl)azanediyl)bis(ethane-2,1-diyl) Diacetate] yielded an IC50 above 50 µM.
In turn, `CC(=O)OCCN(CCOC(C)=O)c1ccc(CNC(CC(N)=O)c2ccc3c(c2)nc(-c2ccc(N(CCOC(C)=O)CCOC(C)=O)cc2)n3Cc2ccc(Cl)c(Cl)c2)cc1` (stereo not shown) [LLS37, ((4-(5-(3-amino-1-((4-(bis(2-acetoxyethyl)amino)benzyl)amino)-3-oxopropyl)-1-(3,4-dichlorobenzyl)-1H-benzo[d]imidazol-2-yl)phenyl)azanediyl)bis(ethane-2,1-diyl) Diacetate] yielded an IC50 in [5] (setting [16]) above 50 µM.
For `NC(=O)CC(NCc1ccc(Cl)c(Cl)c1)c1ccc2c(c1)nc(-c1ccc(N(CCO)CCO)cc1)n2Cc1ccc(OC(F)(F)F)cc1` (stereo not shown) [LLS36, 3-(2-(4-(bis(2-hydroxyethyl)amino)phenyl)-1-(4-(trifluoromethoxy)benzyl)-1H-benzo[d]imidazol-5-yl)-3-((3,4-dichlorobenzyl)amino)propanamide], the IC50 in series [5] (setting [16]) is above 50 µM.
On the same count and under the same terms, to `CC(=O)OCCN(CCOC(C)=O)c1ccc(-c2nc3cc(C(CC(N)=O)NCc4ccc(Cl)c(Cl)c4)ccc3n2Cc2ccc(Cl)c(Cl)c2)cc1` (stereo not shown) [LLS20, ((4-(5-(3-amino-1-((3,4-dichlorobenzyl)amino)-3-oxopropyl)-1-(3,4-dichlorobenzyl)-1H-benzo[d]imidazol-2-yl)phenyl)azanediyl)bis(ethane-2,1-diyl) Diacetate] belongs 7.5 µM; to `CC(=O)OCCN(CCOC(C)=O)c1ccc(-c2nc3cc(C(CC(N)=O)NCc4ccc(Cl)c(Cl)c4)ccc3n2Cc2ccc(F)c(F)c2)cc1` (stereo not shown) [LLS17, ((4-(5-(3-amino-1-((3,4-dichlorobenzyl)amino)-3-oxopropyl)-1-(3,4-difluorobenzyl)-1H-benzo[d]imidazol-2-yl)phenyl)azanediyl)bis(ethane-2,1-diyl) Diacetate], 10.6 µM.

The values are drawn from patent US10844052B2, “LLS compounds for treatment of cancer” (THE REGENTS OF THE UNIVERSITY OF CALIFORNIA, priority 2016, dated 2020).
